In patent US20070009438A1, “Method for diagnosing diabetes type 2 using standardized mixed meal and calculated index values” (DiaMedica Inc., priority 2003, published 2007):

Assay: rapid insulin sensitivity test (RIST) in human volunteers before and after a standardized test meal
Format: in vivo
Settings: 50 mU/kg insulin bolus i.v., average from 5 subjects
Experimental: Human volunteers were fasted overnight and submitted to a RIST. A stable glycemic baseline level was established by determining three consecutive stable venous glucose concentrations obtained at 5-minute intervals. […] Arterialized venous glucose concentrations were determined at 2-minute intervals and a variable glucose infusion pump was adjusted to maintain a constant blood glucose level. After completion of the first RIST index, a standardized meal consisting of a wheat-based biscuit containing 50 grams of carbohydrate was consumed within a 10-minute period. Venous glucose measurements were determined at 5-minute intervals until a new stable baseline was obtained whereupon a second RIST was carried out.
In FIG. 6, the difference between the results is plotted and is attributed to HISS action. […] Thus, the test meal provided a sufficient feeding signal to allow HISS release.

Substance: insulin
- RIST index (glucose disposal in response to the insulin bolus) (human subjects after test meal (wheat-based biscuit, 50 grams of carbohydrate)): 502 mg/kg
- RIST index (glucose disposal in response to the insulin bolus) (human subjects fasted overnight): 180 mg/kg
